Measured values: US20040121008A1, “Process for producing sustained release preparation” (priority 2001, published 2004)

Assay: Increase in solubility of Compound A in dichloromethane/methanol by addition of metal compound
Assay type: physicochemical
Conditions: solvent dichloromethane/methanol=7/3
From the text: Increase in solubility of poorly water-soluble nonpeptidic physiologically active compound by addition of metal compound
An amount of a solvent (dichloromethane/methanol=7/3) which can dissolve 0.1 g of 2-ethoxy-1-[[2′-(1H-tetrazol-5-yl)biphenyl-4-yl]methyl]benzimidazole-7-carboxylic acid (hereinafter, abbreviated as Compound A) is shown in Table 1.

CCOc1nc2cccc(C(=O)O)c2n1Cc1ccc(-c2ccccc2-c2nnn[nH]2)cc1 [Compound A, 2-ethoxy-1-[[2′-(1H-tetrazol-5-yl)biphenyl-4-yl]methyl]benzimidazole-7-carboxylic acid]
Amount of solvent which can dissolve 0.1 g of Compound A (magnesium acetate tetrahydrate 48.7 mg added): 0.5 mL
Amount of solvent which can dissolve 0.1 g of Compound A (no metal compound added): 3 mL
Amount of solvent which can dissolve 0.1 g of Compound A (zinc acetate dihydrate 49.8 mg added): 0.5 mL
